Source: paper PMC10613692, “Central and peripheral analgesic active components of triterpenoid saponins from Stauntonia chinensis and their action mechanism” (Frontiers in Pharmacology, 2023)

What was measured:
Assay type in all cases: cell-based
[1] = molecular target: T1, transient receptor potential vanilloid 1 (TRPV1) (Rattus norvegicus, UniProt O35433); assay: whole-cell patch clamp of capsaicin-induced currents in rat DRG neurons, single concentration ([…])
T1 construct: native channel in rat DRG neurons

[2] = molecular target: T1, transient receptor potential vanilloid 1 (TRPV1); assay: whole-cell patch clamp of capsaicin-induced TRPV1 currents in rat DRG neurons; capsaicin concentration curves with and without C9
Excerpt: whole-cell patch clamp of capsaicin-induced TRPV1 currents in rat DRG neurons; capsaicin concentration curves with and without C9 on transient receptor potential vanilloid 1 (TRPV1) | Concentration dependence curve of the inhibition on CAP-induced TRPV1 currents of C9.

[3] = molecular target: T1, transient receptor potential vanilloid 1 (TRPV1); assay: whole-cell patch clamp in rat DRG neurons, capsaicin concentration-response ([…])

T1 sequence (O35433 whole entry): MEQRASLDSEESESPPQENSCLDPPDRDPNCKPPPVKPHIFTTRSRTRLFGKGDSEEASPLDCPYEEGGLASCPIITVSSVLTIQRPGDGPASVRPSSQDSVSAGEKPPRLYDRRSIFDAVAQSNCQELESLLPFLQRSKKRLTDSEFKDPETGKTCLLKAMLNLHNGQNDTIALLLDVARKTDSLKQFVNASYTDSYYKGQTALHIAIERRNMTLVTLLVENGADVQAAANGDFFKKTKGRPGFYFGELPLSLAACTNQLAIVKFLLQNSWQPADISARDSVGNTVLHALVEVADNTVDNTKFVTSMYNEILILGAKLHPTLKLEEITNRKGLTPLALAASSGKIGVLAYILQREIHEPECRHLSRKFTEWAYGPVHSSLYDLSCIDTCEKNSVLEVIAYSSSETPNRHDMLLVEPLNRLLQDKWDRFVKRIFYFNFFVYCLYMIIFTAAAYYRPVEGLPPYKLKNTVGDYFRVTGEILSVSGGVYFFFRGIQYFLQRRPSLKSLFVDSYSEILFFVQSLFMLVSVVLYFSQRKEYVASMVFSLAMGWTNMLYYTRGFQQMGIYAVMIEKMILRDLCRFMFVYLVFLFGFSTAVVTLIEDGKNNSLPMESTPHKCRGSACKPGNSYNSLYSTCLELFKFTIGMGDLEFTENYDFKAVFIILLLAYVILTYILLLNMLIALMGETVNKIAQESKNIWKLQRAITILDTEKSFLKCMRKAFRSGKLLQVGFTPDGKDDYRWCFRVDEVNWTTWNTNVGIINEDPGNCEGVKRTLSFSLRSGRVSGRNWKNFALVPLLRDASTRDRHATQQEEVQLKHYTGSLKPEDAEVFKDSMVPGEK

`Oc1cc2c(cc1O)CN(C(=S)NCCc1ccc(Cl)cc1)CCC2` [capsazepine] was tested, and the “whole-cell patch clamp of capsaicin-induced currents in rat DRG neurons, single” value [1] was “The recorded current was almost completely suppressed by capsazepine (CPZ), proving that it was the CAP-induced TRPV1 current”.

With `C[C@@H]1O[C@@H](O[C@H]2[C@H](O)[C@@H](O)[C@H](OC[C@H]3O[C@@H](OC(=O)[C@]45CCC(C)(C)C[C@H]4C4=CC[C@@H]6[C@@]7(C)CC[C@H](O[C@@H]8OC[C@H](O)[C@H](O)[C@H]8O)[C@@](C)(CO)[C@@H]7CC[C@@]6(C)[C@]4(C)CC5)[C@H](O)[C@@H](O)[C@@H]3O)O[C@@H]2CO)[C@H](O)[C@H](O)[C@H]1O` [Compound 9, hederasaponin D] the EC50 [2] was 36.9 ± 4.4 nM.

With `COc1cc(CNC(=O)CCCC/C=C/C(C)C)ccc1O` [capsaicin] the “whole-cell patch clamp in rat DRG neurons, capsaicin concentration-response (0.0)” value [3] was “Concentration dependent curves of TRPV1 currents induced by CAP in the presence or absence of C9”.
